Measurements reported in PubChem BioAssay (NCI).
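Test compounds were applied to cells in 96-well plates for 48 hours at 5 doses. GI50: concentration for 50% inhibition of growth. Definition used: TGI = concentration required for complete inhibition of growth.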

Assays:
Assay in all cases: NCI anticancer screen, dose series, 48 h
[1] = system: NCI-H522 lung
[2] = system: NCI-H460 lung
[3] = system: UACC-257 melanoma
[4] = system: SNB-75 CNS
[5] = system: UO-31 renal
[6] = system: IGROV1 ovarian
[7] = system: SF-539 CNS
[8] = system: SW-620 colon
[9] = system: DU-145 prostate
[10] = system: T-47D breast

CS(=O)(=O)CSCSSCS(C)(=O)=O
TGI [1]: 34 µM | TGI [2]: > 84.8 µM | TGI [3]: > 100 µM | TGI [4]: > 100 µM | TGI [5]: > 58.3 µM | TGI [6]: > 100 µM | TGI [7]: 53.5 µM | TGI [8]: 34.3 µM

Cc1cc(C)nc(NS(=O)(=O)c2ccc(Nc3c4ccccc4nc4c(C(=O)N5CCN(CCOS(C)(=O)=O)CC5)cccc34)cc2)n1
TGI [2]: > 100 µM | TGI [3]: > 100 µM | TGI [4]: > 100 µM | TGI [5]: > 100 µM | TGI [6]: > 100 µM | TGI [7]: > 100 µM

CCOC(=O)C1(C#N)C(c2ccccc2)CC(O)(c2ccc(Cl)cc2)C(C(=O)c2ccc(Cl)cc2)C1c1ccccc1 (stereo not drawn)
TGI [1]: > 100 µM | TGI [2]: > 100 µM | TGI [3]: > 100 µM | TGI [4]: 48.9 µM | TGI [5]: > 100 µM | TGI [6]: > 100 µM | TGI [8]: > 100 µM

CC1(C)OCC2OC3([C@@H]4OC(C)(C)O[C@H]4CO)OC(C)(C)OC3C2O1 (stereo partly drawn)
TGI [9]: > 100 µM | TGI [10]: > 100 µM | TGI [2]: > 100 µM | TGI [3]: > 100 µM | TGI [4]: > 100 µM | TGI [5]: > 100 µM | TGI [6]: > 100 µM | TGI [7]: > 100 µM | TGI [8]: > 100 µM

COc1ccc(-c2c3c(n(C4OC(CO)C(O)C(O)C4O)c(=S)c2C#N)CCC3)cc1 (stereo not drawn)
TGI [9]: > 100 µM | TGI [10]: > 100 µM | TGI [2]: > 100 µM | TGI [3]: > 100 µM | TGI [4]: > 100 µM | TGI [5]: > 100 µM | TGI [6]: > 100 µM | TGI [7]: > 100 µM | TGI [8]: > 100 µM

O=C(N/N=C(/CCN1CCCC1)CC(c1ccccc1)c1c(O)c2ccccc2oc1=O)c1ccncc1 (stereo not drawn)
TGI [1]: > 100 µM | TGI [2]: > 100 µM | TGI [3]: > 100 µM | TGI [4]: > 100 µM | TGI [5]: > 100 µM | TGI [6]: > 100 µM | TGI [7]: > 100 µM | TGI [8]: > 100 µM

CC(C)N1CC2CC(CN(C(=O)c3ccccc3)C2)C1
TGI [1]: > 100 µM | TGI [2]: > 100 µM | TGI [3]: > 100 µM | TGI [4]: > 100 µM | TGI [5]: > 100 µM | TGI [6]: > 100 µM | TGI [7]: > 100 µM | TGI [8]: > 100 µM

COC(=O)C1=C(C(=O)OC)SC(=CC#CC=C2SC(C(=O)OC)=C(C(=O)OC)S2)S1
TGI [1]: 54.8 µM | TGI [2]: > 100 µM | TGI [3]: > 100 µM | TGI [4]: 19.3 µM | TGI [5]: 14.1 µM | TGI [6]: 45.8 µM | TGI [7]: 4.86 µM | TGI [8]: > 52 µM

CC(C)C(=O)C(C)(C)CCc1ccccn1
TGI [9]: > 100 µM | TGI [10]: > 100 µM | TGI [1]: > 100 µM | TGI [2]: > 100 µM | TGI [3]: > 100 µM | TGI [4]: > 100 µM | TGI [5]: > 100 µM | TGI [6]: > 100 µM | TGI [8]: > 100 µM

O=C1C=CC=C/C1=C1\N=C(c2ccccc2OCC(=O)c2ccccc2)SS1
TGI [2]: > 100 µM | TGI [3]: > 100 µM | TGI [4]: 65.8 µM | TGI [5]: > 100 µM | TGI [6]: > 100 µM | TGI [7]: > 100 µM | TGI [8]: > 100 µM

C=C1C(OC2O[C@@H]3O[C@@]4(C)CC[C@H]5[C@H](C)CC[C@@H](C2=C)[C@@]35O4)O[C@@H]2O[C@@]3(C)CC[C@H]4[C@H](C)CC[C@@H]1[C@@]24O3 (stereo partly drawn)
TGI [9]: > 50 µM | TGI [10]: > 50 µM | TGI [1]: > 50 µM | TGI [2]: > 50 µM | TGI [3]: > 50 µM | TGI [5]: > 50 µM | TGI [6]: > 50 µM | TGI [7]: > 50 µM | TGI [8]: > 50 µM

Cc1cc(C)c2c(=O)cc(-c3cccc(F)c3)[nH]c2n1
TGI [9]: > 45.3 µM | TGI [10]: > 100 µM | TGI [1]: 0.141 µM | TGI [2]: 2.45 µM | TGI [3]: > 100 µM | TGI [4]: > 100 µM | TGI [5]: > 100 µM | TGI [7]: 4.54 µM

CSC(SC)=C(C(=O)O)P(=O)(O)O
TGI [9]: > 100 µM | TGI [10]: > 100 µM | TGI [1]: > 100 µM | TGI [2]: > 100 µM | TGI [3]: > 100 µM | TGI [6]: > 100 µM | TGI [7]: > 100 µM | TGI [8]: > 100 µM

COC(=O)[C@@H]1CCCCC[C@H]2C(CO)=C(C)C(=O)C12 (stereo partly drawn)
TGI [1]: > 100 µM | TGI [2]: > 100 µM | TGI [3]: > 100 µM | TGI [4]: > 100 µM | TGI [5]: > 100 µM | TGI [6]: > 100 µM | TGI [7]: > 100 µM | TGI [8]: > 100 µM

CCCCOc1ccc(OCCCCCCCCCC[N+](C)(C)C)cc1
TGI [1]: 5.22 µM | TGI [2]: 12.7 µM | TGI [3]: 17.8 µM | TGI [4]: 6.44 µM | TGI [5]: 23 µM | TGI [6]: 3.52 µM | TGI [7]: 14.3 µM | TGI [8]: 14.9 µM

O=C(OCCN=c1c2ccccc2ccc2ccccc12)c1ccccc1
TGI [9]: > 100 µM | TGI [2]: > 100 µM | TGI [3]: > 100 µM | TGI [4]: > 100 µM | TGI [5]: > 100 µM | TGI [6]: > 100 µM | TGI [7]: > 100 µM | TGI [8]: > 100 µM

CCc1c(CNc2ccc(C(=O)NC(CC(=O)O)C(=O)O)cc2)ccc2nc(N)nc(N)c12 (stereo not drawn)
GI50 [9]: 0.148 µM | TGI [9]: > 1000 µM | GI50 [1]: 1.09 µM | TGI [1]: > 1000 µM | TGI [2]: > 1000 µM | GI50 [4]: 115 µM | TGI [4]: > 1000 µM | GI50 [5]: 0.212 µM | TGI [5]: > 1000 µM | TGI [6]: > 1000 µM | GI50 [7]: 0.285 µM | TGI [7]: > 1000 µM | TGI [8]: > 1000 µM

N#C/C(=C/n1c(=S)[nH]c2ccc([N+](=O)[O-])cc21)C(N)=O
TGI [9]: > 100 µM | TGI [2]: > 100 µM | TGI [3]: > 100 µM | TGI [4]: > 100 µM | TGI [5]: > 100 µM | TGI [6]: > 100 µM | TGI [7]: > 100 µM | TGI [8]: > 100 µM

C=C1N(C=O)C(C)(C)N(O)C1(C)C
TGI [9]: > 100 µM | TGI [10]: > 100 µM | TGI [2]: > 100 µM | TGI [3]: > 100 µM | TGI [4]: > 100 µM | TGI [5]: > 100 µM | TGI [6]: > 100 µM | TGI [7]: > 100 µM | TGI [8]: > 100 µM

NCCCCNCCCNC(=O)c1nc(-c2nc(CCN)sc2Cl)sc1Cl
TGI [1]: 55.9 µM | TGI [2]: > 100 µM | TGI [3]: > 100 µM | TGI [4]: > 100 µM | TGI [5]: > 100 µM | TGI [6]: > 100 µM | TGI [7]: > 100 µM | TGI [8]: > 100 µM

COC(=O)C1(CCCCCBr)CCCCCCCCCCC1=O (stereo not drawn)
TGI [9]: > 100 µM | TGI [10]: > 100 µM | TGI [1]: 47.5 µM | TGI [2]: > 100 µM | TGI [3]: 70.2 µM | TGI [5]: 31.8 µM | TGI [6]: 87.2 µM | TGI [7]: > 100 µM | TGI [8]: > 100 µM

CO[C@H]1SC[C@H](OC(C)=O)[C@H](OC(C)=O)[C@H]1OC(C)=O
TGI [9]: > 100 µM | TGI [10]: > 100 µM | TGI [1]: > 100 µM | TGI [2]: > 100 µM | TGI [3]: > 100 µM | TGI [5]: > 100 µM | TGI [6]: > 100 µM | TGI [7]: > 100 µM | TGI [8]: > 100 µM

COc1ccc(Nc2nc(N)c(C(=O)c3c[nH]c4ccccc34)s2)cc1
TGI [9]: 10.2 µM | TGI [10]: > 88.3 µM | TGI [2]: 6.83 µM | TGI [3]: > 91.4 µM | TGI [4]: 6.56 µM | TGI [5]: > 100 µM | TGI [6]: > 100 µM | TGI [7]: > 36.9 µM | TGI [8]: > 100 µM
